Patent US20150119394A1, “Insulin-Like Growth Factor-1 Receptor Inhibitors” (Merck Sharp & Dohme Corp., priority 2012, published 2015)

Target: T1, intracellular kinase domain of human IGF-1R (GST fusion protein) (Homo sapiens, UniProt P08069)
T1 construct: IGFRK and IRK enzyme used for the assay was intracellular kinase domain of human IGF-1R; GST; made in house
Assay: In vitro IGF-1R kinase assay (HTRF)
Assay type: biochemical
Settings: ATP 20 μM, IGFRK 0.25 nM
Protocol: The in vitro kinase assays using IGF-1R and IR kinase GST fusion proteins were conducted using a homogeneous time-resolved fluorescence (HTRF) format. Kinase reactions were carried out in a 384-well plate format in a final volume of 20 μL. The standard enzyme reaction buffer consisted of 50 mM Tris HCL (pH: 7.4), 1 mM EGTA, 10 mM MgCl2, 2 mM DTT, 0.01% Tween-20, IGF-1R/IR kinase enzyme, poly GT peptide substrate (Perkin Elmer [Ulight Glu-Tyr (4:1)]n) and ATP [concentration equivalent to Kmapp] […] Briefly, 2.5 μL enzyme and 2.5 μL inhibitor was preincubated for 10 minutes at 23° C. followed by the addition of 2.5 μL of poly GT substrate (final concentration of 50 nM). Reaction was initiated with the addition of 2.5 μL of ATP (final concentration of 20 μM for IGF-1R assay and 10 μM for IR assay). After 1 hour incubation at 23° C., the kinase reaction was stopped with the addition of 5 μL EDTA (final concentration of 10 mM in 20 μL). Europium cryptate—labeled antiphosphotyrosine antibody PY20 (5 μL) was added (final concentration of 2 nM) and the mixture was allowed to equilibrate for 1 hour at 23° C. followed by reading the plate in an Envision plate reader.
The intensity of light emission at 665 nm was directly proportional to the level of substrate phosphorylation. The IC50 values for inhibitors were determined by a four-parameter sigmoidal curve fit (Sigma plot or Graph pad).
IGFRK and IRK enzyme used for the assay was intracellular kinase domain of human IGF-1R and human IR cloned and expressed as GST fusion proteins using the baculovirus expression system and purified using glutathione—Sepharose column.

T1 sequence (P08069 999-1274 limits assumed): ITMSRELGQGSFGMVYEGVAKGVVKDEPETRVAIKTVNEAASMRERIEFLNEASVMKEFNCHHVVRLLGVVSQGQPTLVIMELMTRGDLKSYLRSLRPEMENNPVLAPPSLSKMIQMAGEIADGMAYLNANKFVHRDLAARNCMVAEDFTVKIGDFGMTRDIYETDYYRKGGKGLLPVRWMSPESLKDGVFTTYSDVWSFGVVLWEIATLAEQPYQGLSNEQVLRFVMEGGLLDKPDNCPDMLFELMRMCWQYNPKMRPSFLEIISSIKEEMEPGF

| SMILES | IC50 [nM] |
| --- | --- |
| NC(=O)c1[nH]c2ccc(Cl)cc2c1S(=O)(=O)N1CCO[C@H](COc2ccc(-c3cncnc3)cc2)C1 [Compound 48, (S)-5-chloro-3-((2-((4-(pyrimidin-5-yl)phenoxy)methyl)morpholino)sulfonyl)-1H-indole-2-carboxamide] | 4 |
| NC(=O)c1[nH]c2ccc(Cl)cc2c1S(=O)(=O)N1CCO[C@H](COc2ccc(-c3cccnc3F)cc2)C1 [Compound 49, (S)-5-chloro-3-((2-((4-(2-fluoropyridin-3-yl)phenoxy)methyl)morpholino)sulfonyl)-1H-indole-2-carboxamide] | 5 |
| Cc1ncccc1-c1ccc(OC[C@@H]2CN(S(=O)(=O)c3c(C(N)=O)[nH]c4ccc(Cl)cc34)CCO2)cc1 [Compound 50, (S)-5-chloro-3-((2-((4-(2-methylpyridin-3-yl)phenoxy)methyl)morpholino)sulfonyl)-1H-indole-2-carboxamide] | 3.2 |
| Cc1ccc(-c2ccc(OC[C@@H]3CN(S(=O)(=O)c4c(C(N)=O)[nH]c5ccc(Cl)cc45)CCO3)cc2)cn1 [Compound 52, (S)-5-chloro-3-((2-((4-(6-methylpyridin-3-yl)phenoxy)methyl)morpholino)sulfonyl)-1H-indole-2-carboxamide] | > 100 |
| NC(=O)c1[nH]c2ccc(Cl)cc2c1S(=O)(=O)N1CCO[C@H](COc2ccccc2-c2ccccc2)C1 [Compound 54, (S)-3-((2-(([1,1′-biphenyl]-2-yloxy)methyl)morpholino)sulfonyl)-5-chloro-1H-indole-2-carboxamide] | > 1000 |
| NC(=O)c1[nH]c2ccc(Cl)cc2c1S(=O)(=O)N1CCO[C@H](COc2ccccc2-c2cccnc2)C1 [Compound 55, (S)-5-chloro-3-((2-((2-(pyridin-3-yl)phenoxy)methyl)morpholino)sulfonyl)-1H-indole-2-carboxamide] | > 1000 |
| NC(=O)c1[nH]c2ccc(Cl)cc2c1S(=O)(=O)N1CCO[C@H](COc2ccccc2-c2ccncc2)C1 [Compound 56, (S)-5-chloro-3-((2-((2-(pyridin-4-yl)phenoxy)methyl)morpholino)sulfonyl)-1H-indole-2-carboxamide] | > 1000 |
| NC(=O)c1[nH]c2ccc(Cl)cc2c1S(=O)(=O)N1CCO[C@H](COc2ccccc2-c2cccnc2F)C1 [Compound 57, (S)-5-chloro-3-((2-((2-(2-fluoropyridin-3-yl)phenoxy)methyl)morpholino)sulfonyl)-1H-indole-2-carboxamide] | > 1000 |
| COc1ccccc1-c1ccccc1OC[C@@H]1CN(S(=O)(=O)c2c(C(N)=O)[nH]c3ccc(Cl)cc23)CCO1 [Compound 58, (S)-5-chloro-3-((2-(((2′-methoxy-[1,1′-biphenyl]-2-yl)oxy)methyl)morpholino)sulfonyl)-1H-indole-2-carboxamide] | > 1000 |
| NC(=O)c1[nH]c2ccc(Cl)cc2c1S(=O)(=O)N1CCO[C@H](COc2ccccc2-c2ccc(F)nc2)C1 [Compound 59, (S)-5-chloro-3-((2-((2-(6-fluoropyridin-3-yl)phenoxy)methyl)morpholino)sulfonyl)-1H-indole-2-carboxamide] | > 1000 |
| NC(=O)c1[nH]c2ccc(Cl)cc2c1S(=O)(=O)N1CCO[C@H](COc2ccccc2-c2cncnc2)C1 [Compound 60, (S)-5-chloro-3-((2-((2-(pyrimidin-5-yl)phenoxy)methyl)morpholino)sulfonyl)-1H-indole-2-carboxamide] | > 1000 |
| COc1ccc(-c2ccccc2OC[C@@H]2CN(S(=O)(=O)c3c(C(N)=O)[nH]c4ccc(Cl)cc34)CCO2)cn1 [Compound 61, (S)-5-chloro-3-((2-((2-(6-methoxypyridin-3-yl)phenoxy)methyl)morpholino)sulfonyl)-1H-indole-2-carboxamide] | > 1000 |
| NC(=O)c1[nH]c2ccc(Cl)cc2c1S(=O)(=O)N1CCO[C@H](COc2ccccc2-c2ccccc2F)C1 [Compound 62, (S)-5-chloro-3-((2-(((2′-fluoro-[1,1′-biphenyl]-2-yl)oxy)methyl)morpholino)sulfonyl)-1H-indole-2-carboxamide] | > 1000 |
| Cc1ncccc1-c1ccccc1OC[C@@H]1CN(S(=O)(=O)c2c(C(N)=O)[nH]c3ccc(Cl)cc23)CCO1 [Compound 63, (S)-5-chloro-3-((2-((2-(2-methylpyridin-3-yl)phenoxy)methyl)morpholino)sulfonyl)-1H-indole-2-carboxamide] | > 1000 |
| NC(=O)c1[nH]c2ccc(Cl)cc2c1S(=O)(=O)N1CCO[C@H](COc2ccccc2-c2cccc(F)c2)C1 [Compound 64, (S)-5-chloro-3-((2-(((3′-fluoro-[1,1′-biphenyl]-2-yl)oxy)methyl)morpholino)sulfonyl)-1H-indole-2-carboxamide] | > 1000 |
| Cc1cc(OC[C@@H]2CN(S(=O)(=O)c3c(C(N)=O)[nH]c4ccc(Cl)cc34)CCO2)ccc1-c1cccnc1 [Compound 66, (S)-5-chloro-3-((2-((3-methyl-4-(pyridin-3-yl)phenoxy)methyl)morpholino)sulfonyl)-1H-indole-2-carboxamide] | 18.7 |
| Cc1cc(OC[C@@H]2CN(S(=O)(=O)c3c(C(N)=O)[nH]c4ccc(Cl)cc34)CCO2)ccc1-c1ccncc1 [Compound 67, (S)-5-chloro-3-((2-((3-methyl-4-(pyridin-4-yl)phenoxy)methyl)morpholino)sulfonyl)-1H-indole-2-carboxamide] | 4.3 |
| Cc1cc(OC[C@@H]2CN(S(=O)(=O)c3c(C(N)=O)[nH]c4ccc(Cl)cc34)CCO2)ccc1-c1cccnc1F [Compound 68, (S)-5-chloro-3-((2-((4-(2-fluoropyridin-3-yl)-3-methylphenoxy)methyl)morpholino)sulfonyl)-1H-indole-2-carboxamide] | 37.9 |
| COc1ccc(-c2ccc(OC[C@@H]3CN(S(=O)(=O)c4c(C(N)=O)[nH]c5ccc(Cl)cc45)CCO3)cc2C)cn1 [Compound 69, (S)-5-chloro-3-((2-((4-(6-methoxypyridin-3-yl)-3-methylphenoxy)methyl)morpholino)sulfonyl)-1H-indole-2-carboxamide] | > 100 |
| COc1cc(-c2ccc(OC[C@@H]3CN(S(=O)(=O)c4c(C(N)=O)[nH]c5ccc(Cl)cc45)CCO3)cc2C)ccn1 [Compound 70, (S)-5-chloro-3-((2-((4-(2-methoxypyridin-4-yl)-3-methylphenoxy)methyl)morpholino)sulfonyl)-1H-indole-2-carboxamide] | 75.9 |
| Cc1cc(OC[C@@H]2CN(S(=O)(=O)c3c(C(N)=O)[nH]c4ccc(Cl)cc34)CCO2)ccc1-c1cncnc1 [Compound 71, (S)-5-chloro-3-((2-((3-methyl-4-(pyrimidin-5-yl)phenoxy)methyl)morpholino)sulfonyl)-1H-indole-2-carboxamide] | 5.3 |
| Cc1cc(OC[C@@H]2CN(S(=O)(=O)c3c(C(N)=O)[nH]c4ccc(Cl)cc34)CCO2)ccc1-c1ccnc(F)c1 [Compound 72, (S)-5-chloro-3-((2-((4-(2-fluoropyridin-4-yl)-3-methylphenoxy)methyl)morpholino)sulfonyl)-1H-indole-2-carboxamide] | 13.3 |
| Cc1cc(OC[C@@H]2CN(S(=O)(=O)c3c(C(N)=O)[nH]c4ccc(Cl)cc34)CCO2)ccc1-c1ccc(F)nc1 [Compound 73, (S)-5-chloro-3-((2-((4-(6-fluoropyridin-3-yl)-3-methylphenoxy)methyl)morpholino)sulfonyl)-1H-indole-2-carboxamide] | 30 |
| NC(=O)c1[nH]c2ccc(Cl)cc2c1S(=O)(=O)N1CCO[C@H](COc2cncc(-c3cc(C(F)(F)F)ccc3F)c2)C1 [Compound 75] | > 1000 |
| NC(=O)c1[nH]c2ccc(Cl)cc2c1S(=O)(=O)N1CCO[C@H](COc2cncc(-c3ccccc3)c2)C1 [Compound 76, (S)-5-chloro-3-((2-(((5-phenylpyridin-3-yl)oxy)methyl)morpholino)sulfonyl)-1H-indole-2-carboxamide] | > 1000 |
| NC(=O)c1[nH]c2ccc(Cl)cc2c1S(=O)(=O)N1CCO[C@H](COc2cnc(-c3ccccc3)cn2)C1 [Compound 77, (S)-5-chloro-3-((2-(((5-phenylpyrazin-2-yl)oxy)methyl)morpholino)sulfonyl)-1H-indole-2-carboxamide] | 204 |
| NC(=O)c1[nH]c2ccc(Cl)cc2c1S(=O)(=O)N1CCO[C@H](COc2cncc(-c3ccccc3F)c2)C1 [Compound 78] | > 1000 |
| NC(=O)c1[nH]c2ccc(Cl)cc2c1S(=O)(=O)N1CCO[C@H](COc2ccc(-c3ccccc3)nc2)C1 [Compound 79, (S)-5-chloro-3-((2-(((6-phenylpyridin-3-yl)oxy)methyl)morpholino)sulfonyl)-1H-indole-2-carboxamide] | 25.4 |
| NC(=O)c1[nH]c2ccc(Cl)cc2c1S(=O)(=O)N1CCO[C@H](COc2cccc(-c3ccccc3)n2)C1 [Compound 80, (S)-5-chloro-3-((2-(((6-phenylpyridin-2-yl)oxy)methyl)morpholino)sulfonyl)-1H-indole-2-carboxamide] | 47.1 |
